Measurements from article PMC5046141, “Discovery of Isoquinolinoquinazolinones as a Novel Class of Potent PPARγ Antagonists with Anti-adipogenic Effects” (Scientific Reports, 2016).

Columns and labels:
3T3-L1 preadipocytes = assay: Oil Red O staining assay of adipocyte differentiation; type: cell-based, mouse; conditions: for inhibition at 25 µM: Mus musculus, 3T3-L1, relative absorbance from Oil Red O staining at 25 μM, read-out: Inhibitory activity (%) on adipocyte differentiation
Method: The GW9662-mediated inhibition of PPARγ was confirmed using an Oil Red O staining assay to measure adipocyte differentiation. To investigate whether the novel compounds could inhibit adipocyte differentiation, 3T3-L1 preadipocytes were incubated with differentiation medium (MDI; insulin, dexamethasone, and isobutyl methyl xanthine) in the presence of increasing concentrations of isoquinolinoquinazolinones. Adipogenesis was analyzed using Oil Red O staining after treatment with the compounds.
The mouse preadipocyte cell line 3T3-L1 was maintained at 37 °C in humidified air with 5% CO2. 3T3-L1 cells were cultured in Dulbecco’s modified Eagle medium (DMEM; Life Technologies) supplemented with 10% bovine serum (BS; Gibco Invitrogen, Carlsbad, California, USA) as growth medium. For adipocyte differentiation, cells were cultured for 2 days to full confluence in a 24-well plate and the growth medium was then replaced (day 0) with DMEM supplemented with 10% fetal bovine serum (FBS, Gibco Invitrogen, Carlsbad, California, USA), 5 μg/mL insulin (Sigma, St. Louis, Missouri, USA), 0.5 mM 3-isobutyl-1-methylxanthine (Sigma), and 1 μM dexamethasone (Sigma). After 48 h, the differentiation medium was replaced (day 2) with DMEM + 10% FBS containing 5 μg/mL insulin, and the cells were allowed to accumulate lipid droplets until experimental use.
The accumulation of lipids signifying the formation of adipocytes was observed by staining the differentiated cells with Oil Red O. Following differentiation, cells were washed twice with phosphate-buffered saline (PBS), fixed with 10% formalin for 60 min. Oil Red O stock solution (0.5%) was prepared in isopropanol and filtered in cellulose nitrate filters. Cells were stained with Oil Red O diluted 6:4 in water for 1 h at room temperature. Excess Oil Red O dye was washed off twice with distilled water and then dried. The stained lipid droplets within cells were visualized using an optical microscope and photographed with a digital camera at 100× magnification.

PPARγ2 = molecular target: T1, PPARγ2 (Mus musculus, UniProt P37238); assay: PPRE-Luc luciferase reporter assay of PPARγ2-induced transcriptional activity in 3T3-L1 cells; type: cell-based
T1 construct: expressed in transfected cells; host or cells: 3T3-L1 (mouse preadipocytes), pCS4 CMV vector
T1 sequence (P37238 1-505): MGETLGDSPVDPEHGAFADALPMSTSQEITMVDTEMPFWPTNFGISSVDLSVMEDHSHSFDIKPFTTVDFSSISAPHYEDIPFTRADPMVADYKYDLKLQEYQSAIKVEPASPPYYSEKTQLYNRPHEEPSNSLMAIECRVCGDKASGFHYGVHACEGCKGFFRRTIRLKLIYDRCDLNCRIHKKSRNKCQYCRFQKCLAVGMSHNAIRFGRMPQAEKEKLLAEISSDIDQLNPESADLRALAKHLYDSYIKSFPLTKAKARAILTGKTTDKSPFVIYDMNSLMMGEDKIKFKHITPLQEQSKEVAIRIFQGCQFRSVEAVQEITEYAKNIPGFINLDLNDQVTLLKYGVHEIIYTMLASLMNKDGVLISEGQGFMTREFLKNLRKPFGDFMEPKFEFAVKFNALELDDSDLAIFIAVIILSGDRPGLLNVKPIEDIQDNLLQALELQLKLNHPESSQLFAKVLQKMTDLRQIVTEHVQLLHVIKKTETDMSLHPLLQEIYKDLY
Method: To analyze whether isoquinolinoquinazolinones inhibit the transactivation of PPARγ, 3T3-L1 cells were cotransfected with full-length PPARγ2 expression vector with a peroxisome proliferator response element (PPRE)-driven luciferase reporter gene (PPRE-Luc) that has been reported to respond to PPARγ[23][24]. […] Titration curves were generated using Graph Pad Prism®, and the IC50 value of each compound with respect to PPARγ2-induced transcriptional activity was determined.
The transcription activity was determined in 3T3-L1 cells transiently co-transfected with PPRE-driven luciferase reporter gene (PPRE-Luc) and PPARγ2 expression vector. […] After 24 h of transfection, the cells were cultured with indicated combination for 12 h. Luciferase activity was measured after 36 h.
For plasmids expressing PPARγ2, full length PPARγ2 (mouse, 1518 bp: NCBI Reference Sequence: NP_035276.2) was subcloned into CMV promoter-derived mammalian expression vector (pCS4). Plasmids for C285G, R288G mutant PPARγ2 were generated by PCR-based site-directed mutagenesis and also subcloned into CMV promoter-derived mammalian expression vector (pCS4).
3T3-L1 cells were transfected for indicated combinations of expression plasmids along with a luciferase reporter plasmid (PPRE-Luc). PPRE-Luc contains the consensus PPAR responsive element (PPRE). pCMV-β-gal was co-transfected for normalization of transfection efficiency. 24 h after transfection, cells were treated with indicated compounds for 12 h. Luciferase activities were measured using a luciferase reporter assay kit (Promega, Madison, WI, USA). Experiments were performed in triplicate and repeated at least three times.

Compound | inhibition at 25 µM (3T3-L1 preadipocytes) | melting point | further results
Cc1cc2cc3n(c(=O)c2cc1C)COc1cc2c(cc1-3)OCO2 [Compound 10h] | 38.8% | – | –
Cc1cccc2c(=O)n3c(cc12)-c1cc2c(cc1OC3)OCO2 [Compound 10e] | 44.8% | – | –
Cc1ccc2c(=O)n3c(cc2c1)-c1ccc(Cl)cc1NC3 [Compound 8e] | 63.3% | 210 to 211.5 °C | –
Cc1ccc2cc3n(c(=O)c2c1)COc1cc2c(cc1-3)OCO2 [Compound 10g] | 40.9% | – | –
Cc1ccc2c(=O)n3c(cc2c1)-c1ccccc1NC3 [Compound 8d] | 53.9% | 119.1 to 120.4 °C | –
Cc1cccc2c(=O)n3c(cc12)-c1cc(Cl)ccc1NC3 [Compound 8c] | 30.9% | 240.5 to 242.1 °C | –
CN(CCOc1ccc(CC2SC(=O)NC2=O)cc1)c1ccccn1 (stereo not shown) [Rosiglitazone] | – | – | increase of luciferase expression (PPARγ2; rosiglitazone treatment, PPRE-Luc): up to 3 fold
Cc1cc2cc3n(c(=O)c2cc1C)COc1ccccc1-3 [Compound 10c] | 60.4% | – | –
Cc1ccc2cc3n(c(=O)c2c1)CNc1ccc(Cl)cc1-3 [Compound 8g] | 42.4% | 202.6 to 205.1 °C | –
Cc1cc2cc3n(c(=O)c2cc1C)CNc1cc(Cl)ccc1-3 [Compound 8j] | 53% | 235.1 to 236.4 °C | –
Cc1ccc2c(=O)n3c(cc2c1)-c1ccccc1OC3 [Compound 10b] | 25.7% | – | –
COc1ccc2c(=O)n3c(cc2c1)-c1cc(Cl)ccc1NC3 [Compound 8m] | 28.1% | 203.9 to 205.2 °C | –
Cc1cc2cc3n(c(=O)c2cc1C)CNc1ccccc1-3 [Compound 8h] | 41.6% | 212.7 to 214.2 °C | –
COc1ccc2c(=O)n3c(cc2c1OC)-c1ccccc1OC3 [Compound 10d] | 62.5% | – | –
Cc1ccc2c(=O)n3c(cc2c1)-c1cc2c(cc1OC3)OCO2 [Compound 10f] | 30.5% | – | –
Cc1ccc2cc3n(c(=O)c2c1)CNc1ccccc1-3 [Compound 8f] | 28.6% | 213.2 to 214.5 °C | –
6,8-Dihydro-5H-isoquinolino[2,3-c]quinazoline [Compound 9] | – | – | Inhibitory activity (%) on adipocyte differentiation (3T3-L1 preadipocytes; relative absorbance from Oil Red O staining at 25 μM): 62.5%
Cc1cccc2c(=O)n3c(cc12)-c1ccccc1OC3 [Compound 10a] | 23.6% | – | –
Cc1cc2cc3n(c(=O)c2cc1C)CNc1ccc(Cl)cc1-3 [Compound 8i] | 49.8% | 268.7 to 270.6 °C | –
COc1ccc2cc3[n+](cc2c1OC)CCc1cc2c(cc1-3)OCO2 [Berberine] | 71.4% | – | inhibition of PPARγ2 transfection (transcriptional activity), with rosiglitazone stimulation (PPARγ2; 5 μM, with rosiglitazone): 40%; inhibition of PPARγ2 transfection (transcriptional activity), compound alone (PPARγ2; 5 μM, without rosiglitazone): 33%; IC50 (PPARγ2; 3T3-L1 cotransfected with PPARγ2 and PPRE-Luc, read-out: IC50 with respect to PPARγ2-induced transcriptional activity): 6.63 µM
O=c1c2ccccc2cc2n1CNc1ccccc1-2 [Compound 8a, 5H-Isoquinolino[2,3-c]quinazolin-8(6H)-one] | 53% | 204.3 to 206.3 °C | –
COc1ccc2c(=O)n3c(cc2c1)-c1ccccc1NC3 [Compound 8k] | 56.1% | 145.4 to 148 °C | –
Cc1cccc2c(=O)n3c(cc12)-c1ccccc1NC3 [Compound 8b] | 49% | 226.5 to 228.1 °C | –
COc1ccc2c(=O)n3c(cc2c1)-c1ccc(Cl)cc1NC3 [Compound 8l] | 39.1% | 213.6 to 215.1 °C | –
